Reference: patent publication US7851637B2, “Compounds and methods for inhibiting the interaction of BCL proteins with binding partners” (Infinity Pharmaceuticals, Inc., priority 2004, dated 2010)
Read-outs that look alike come from different tables or passages of the source.

Legend:
Bcl-2 = Bcl-2 (Homo sapiens, UniProt P10415); test: Bcl-2 binding affinity analysis (fluorescence polarization binding assay)
In short: (§1)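 Compounds were tested in vitro for association with the purified target, with binding quantified from the change in fluorescence polarization.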

Bcl-xL = Bcl-xL (Homo sapiens, UniProt Q07817); test: Bcl-xL binding affinity analysis (fluorescence polarization binding assay); parameters: scale not given here
In short: as §1

[1] = test system: RL Human Follicular Lymphoma Cell Line; test: Alamar blue cytotoxicity assay in RL cells; format: cell-based; conditions: Homo sapiens, 72 h incubation, read-out: Bcl RL Alamar Blue IC50
Protocol: (§2) When RL-cells are exposed to isoxazolidine compounds of the present invention, the inhibitors show a dose-dependent cell-killing in the Alamar blue cytoxicity assay with IC50 values of from about 100 μM to about 1 μM (See Examples). When Panc1 cells are exposed to the isoxazolidine compounds of the present invention in combination with camptothecin, the inhibitors show a synergistic dose-dependent cell killing in the propidium iodide exclusion cell survival assay with IC50 values of from about 100 μM to about 1 μM (See Examples).
• 1) Using 96 well plates, compounds were serially diluted in DMSO from 9 mM to 4 uM • 2) Assay plates were prepared by diluting samples 310 fold into 150 ul of medium containing 30,000 cells/well resulting in a final DMSO concentration of 0.3% and a concentration range from 29 uM to 0.013 uM for each compound. • 3) Plates were incubated at 37 C and 5% CO2 for 72 h • 4) After 72 h, Alamar blue reagent was added to each well and plates read according to manufacturer's instructions
In vitro cytotoxicity data for RL cells is presented below for various compounds of the invention.

[2] = test system: Human Pancreatic Cancer Cell Line Panc1; test: Cell death assay (propidium iodide/Hoechst) in Panc1 cells with or without camptothecin; format: cell-based; conditions: 72 hours, % cell death by propidium iodide/Hoechst
Protocol: as §2
• 1) Compounds were serially diluted in DMSO from a 9 mM stock to a final concentration of 0.004 mM in a 96 well plate. • 2) Assay plates were prepared by diluting compounds 310 fold into 150 ul of medium containing 10,000 cells/well, with or without 3 uM Camptothecin, resulting in a final DMSO concentration of 0.3% and a compound concentration range from 29 uM to […] for each compound. • 3) Assay plates were incubated at 37 C, 5% CO2 for 72 hours. • 4) After 72 hours, propidium iodide and Hoechst dye were added to each well according to manufacturer's instruction. • 5) Plates were imaged on a fluorescence microscope at wavelengths Ex560/Em650 (Propidium iodide) and Ex360/Em465 (Hoechst) • 6) MetaMorph imaging software was used to determine % cell death by dividing the number of propidium iodide stained cells (dead cells) by the number of Hoechst stained cells (all cells), multipled by 100, in each field.
Panc1 invitro cellular data is presented below for various compounds of the invention.

[3] = Homo sapiens, PANC-1, without camptothecin, read-out: Panc1 − Cpt IC50
[4] = with 3 uM Camptothecin, read-out: Panc1 + Cpt IC50

Chain of Bcl-2 (P10415 whole entry): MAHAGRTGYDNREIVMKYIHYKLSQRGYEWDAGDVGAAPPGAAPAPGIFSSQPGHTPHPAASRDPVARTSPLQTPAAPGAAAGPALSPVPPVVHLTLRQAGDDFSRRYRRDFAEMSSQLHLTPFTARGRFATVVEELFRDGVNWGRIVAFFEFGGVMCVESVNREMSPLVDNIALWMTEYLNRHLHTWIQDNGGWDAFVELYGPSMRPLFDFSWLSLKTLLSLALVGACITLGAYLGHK
Chain of Bcl-xL (Q07817 whole entry): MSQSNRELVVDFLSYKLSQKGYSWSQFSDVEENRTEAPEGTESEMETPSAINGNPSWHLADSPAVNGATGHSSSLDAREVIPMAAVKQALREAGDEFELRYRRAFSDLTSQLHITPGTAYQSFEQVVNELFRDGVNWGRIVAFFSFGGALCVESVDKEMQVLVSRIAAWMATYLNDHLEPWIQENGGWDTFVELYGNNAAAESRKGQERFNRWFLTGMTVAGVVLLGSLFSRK

Row | Structure (SMILES) | Ki (Bcl-2) [µM] | Bcl-XL binding affinity Ki (Bcl-xL) | IC50 [1] [µM] | IC50 [2, 3] [µM] | IC50 [2, 4] [µM] | IC50 ([2]; without camptothecin, read-out: Panc1 − Cpt IC50) [µM]
1 | CC(O)C1C(CO)ON(Cc2cccc(CN3C(CN(C)C)CC4CCCCC43)c2)C1C(=O)NC1CC2CC(C1C)C2(C)C (centres unmarked) [Compound 466] | < 0.8 | ♯ | > 5 | – | – | –
2 | COC(=O)CCNC(=O)c1cccc(-c2cccc(CN3O[C@@H](CO)[C@@H]([C@H](C)O)[C@H]3C(=O)N[C@H]3C[C@H]4C[C@@H]([C@@H]3C)C4(C)C)c2)c1 [Compound 190] | – | – | 2 to 5 | – | – | –
3 | CC(O)C1C(CO)ON(Cc2cccc(CN(CCN(C)C)Cc3cccc4ccccc34)c2)C1C(=O)NC1CC2CC(C1C)C2(C)C (centres unmarked) [Compound 368] | < 0.8 | ♯ | 2 to 5 | – | – | –
4 | CC(O)C1C(CO)ON(Cc2cccc(CN3CCN(C)C(c4ccccc4)C3)c2)C1C(=O)NC1CC2CC(C1C)C2(C)C (centres unmarked) [Compound 456] | < 0.8 | ♯ | > 5 | – | – | –
5 | C[C@@H]1[C@@H](NC(=O)[C@@H]2C([C@H](C)O)[C@H](CO)ON2Cc2cccc(CN(Cc3ccccc3)[C@@H]3CCN(C)C3)c2)C[C@H]2C[C@@H]1C2(C)C (some centres unmarked) [Compound 432] | < 0.8 | ♯ | < 2 | – | – | –
6 | COC(=O)CCNC(=O)c1cccc(-c2cccc(CN3O[C@@H](CO)[C@@H]([C@H](C)O)[C@H]3C(=O)N[C@H]3C[C@H]4C[C@@H]([C@@H]3C)C4(C)C)c2)c1 [Compound 149] | < 0.8 | ♯ | – | > 2.5 | 1.8 to 2.5 | –
7 | CC(O)C1C(CO)ON(Cc2cccc(C(=O)NC(Cc3ccccc3)CN(C)C)c2)C1C(=O)NC1CC2CC(C1C)C2(C)C (centres unmarked) [Compound 508] | < 0.8 | ♯ | – | > 2.5 | > 2.5 | –
8 | CC(O)C1C(CO)ON(Cc2cccc(CNC(CN(C)C)C3CCCCC3)c2)C1C(=O)NC1CC2CC(C1C)C2(C)C (centres unmarked) [Compound 443] | < 0.8 | ♯ | – | > 2.5 | > 2.5 | –
9 | CC(O)C1C(CO)ON(Cc2cccc(CNC(CN(C)C)c3ccccc3)c2)C1C(=O)NC1CC2CC(C1C)C2(C)C (centres unmarked) [Compound 452] | < 0.8 | ♯ | – | > 2.5 | > 2.5 | –
10 | C[C@@H]1[C@@H](NC(=O)[C@@H]2[C@H]([C@H](C)O)[C@H](CO)ON2Cc2cccc(-c3cccc(C(=O)NCCN(C)C)c3)c2OCC2CC2)C[C@H]2C[C@@H]1C2(C)C [Compound 497] | < 0.8 | ♯ | – | > 2.5 | > 2.5 | –
11 | CC(O)C1C(CO)ON(Cc2cccc(C(=O)NC(CC3CCCCC3)CN(C)C)c2)C1C(=O)NC1CC2CC(C1C)C2(C)C (centres unmarked) [Compound 501] | < 0.8 | ♯ | – | 1.8 to 2.5 | 1.3 to 1.8 | –
12 | CC(O)C1C(CO)ON(Cc2cccc(CNC(CC3CCCCC3)CN(C)C)c2)C1C(=O)NC1CC2CC(C1C)C2(C)C (centres unmarked) [Compound 451] | < 0.8 | ♯ | – | – | – | > 2.5
13 | CC(O)C1C(CO)ON(Cc2cccc(CN(CCN3CCCC3)Cc3ccccc3)c2)C1C(=O)NC1CC2CC(C1C)C2(C)C (centres unmarked) [Compound 430] | < 0.8 | ♯ | – | > 2.5 | > 2.5 | –
14 | COc1c(CN2O[C@@H](CO)[C@@H]([C@H](C)O)[C@H]2C(=O)N[C@H]2C[C@H]3C[C@@H]([C@@H]2C)C3(C)C)cccc1-c1cccc(C(=O)N[C@H](CC2CCCCC2)CN(C)C)c1 [Compound 489] | < 0.8 | ♯ | – | > 2.5 | 1.8 to 2.5 | –
15 | CCOc1c(CN2O[C@@H](CO)[C@@H]([C@H](C)O)[C@H]2C(=O)N[C@H]2C[C@H]3C[C@@H]([C@@H]2C)C3(C)C)cccc1-c1cccc(C(=O)NCCN(C)C)c1 [Compound 495] | < 0.8 | ♯ | – | > 2.5 | > 2.5 | –

Second part, led by results:

Row | Ki (Bcl-2) [µM] | Bcl-XL binding affinity Ki (Bcl-xL) | Structure (SMILES) | IC50 [1] [µM] | IC50 [2, 3] [µM] | IC50 [2, 4] [µM] | IC50 ([2]; without camptothecin, read-out: Panc1 − Cpt IC50) [µM]
16 | < 0.8 | ♯ | CC(O)C1C(CO)ON(Cc2cccc(CN(Cc3ccccc3)C(CC3CCCCC3)CN(C)C)c2)C1C(=O)NC1CC2CC(C1C)C2(C)C (centres unmarked) [Compound 437] | > 5 | – | – | –
17 | < 0.8 | ♯ | CC(C)CC(CN(C)C)N(Cc1ccc(C(F)(F)F)cc1)Cc1cccc(CN2OC(CO)C(C(C)O)C2C(=O)NC2CC3CC(C2C)C3(C)C)c1 (centres unmarked) [Compound 327] | < 2 | – | – | –
18 | < 0.8 | ♯ | CC(O)C1C(CO)ON(Cc2cccc(CN(CCN(C)C)Cc3cccc(Cl)c3)c2)C1C(=O)NC1CC2CC(C1C)C2(C)C (centres unmarked) [Compound 361] | 2 to 5 | – | – | –
19 | < 0.8 | ♯ | COc1cccc(OC)c1CN(Cc1cccc(CN2OC(CO)C(C(C)O)C2C(=O)NC2CC3CC(C2C)C3(C)C)c1)C(CC(C)C)CN(C)C (centres unmarked) [Compound 324] | < 2 | – | – | –
20 | < 0.8 | ♯ | CC(C)CC(CN(C)C)N(Cc1cccc(CN2OC(CO)C(C(C)O)C2C(=O)NC2CC3CC(C2C)C3(C)C)c1)Cc1cccc(C(F)(F)F)c1 (centres unmarked) [Compound 326] | 2 to 5 | – | – | –
21 | < 0.8 | ♯ | CC(O)C1C(CO)ON(Cc2cccc(CN(CCN(C)C)Cc3cc4ccccc4o3)c2)C1C(=O)NC1CC2CC(C1C)C2(C)C (centres unmarked) [Compound 384] | 2 to 5 | – | – | –
22 | < 0.8 | ♯ | CC(C)C[C@@H](CN(C)C)N(Cc1cccc(CN2O[C@@H](CO)C([C@H](C)O)[C@H]2C(=O)N[C@H]2C[C@H]3C[C@@H]([C@@H]2C)C3(C)C)c1)Cc1c(Cl)cccc1[N+](=O)[O-] (some centres unmarked) [Compound 322] | 2 to 5 | – | – | –
23 | < 0.8 | ♯ | CC(C)CC(CN(C)C)N(Cc1cccc(CN2OC(CO)C(C(C)O)C2C(=O)NC2CC3CC(C2C)C3(C)C)c1)Cc1c(F)cccc1Cl (centres unmarked) [Compound 307] | – | > 2.5 | > 2.5 | –
24 | < 0.8 | ♯ | COc1cccc(CN(Cc2cccc(CN3OC(CO)C(C(C)O)C3C(=O)NC3CC4CC(C3C)C4(C)C)c2)C(CC(C)C)CN(C)C)c1 (centres unmarked) [Compound 319] | – | 1.8 to 2.5 | 1.3 to 1.8 | –
25 | < 0.8 | ♯ | CC(C)CC(CN(C)C)N(Cc1cccc(O)c1)Cc1cccc(CN2OC(CO)C(C(C)O)C2C(=O)NC2CC3CC(C2C)C3(C)C)c1 (centres unmarked) [Compound 310] | – | > 2.5 | 1.8 to 2.5 | –
26 | < 0.8 | ♯ | CC(C)CC(CN(C)C)N(Cc1cccc(CN2OC(CO)C(C(C)O)C2C(=O)NC2CC3CC(C2C)C3(C)C)c1)CC1CCCCC1 (centres unmarked) [Compound 303] | – | > 2.5 | > 2.5 | –
27 | < 0.8 | ♯ | CC(O)C1C(CO)ON(Cc2cccc(CN(CCN(C)C)Cc3ccsc3)c2)C1C(=O)NC1CC2CC(C1C)C2(C)C (centres unmarked) [Compound 347] | – | > 2.5 | > 2.5 | –
28 | < 0.8 | ♯ | CC(O)C1C(CO)ON(Cc2cccc(CN(CCN(C)C)Cc3cccs3)c2)C1C(=O)NC1CC2CC(C1C)C2(C)C (centres unmarked) [Compound 358] | – | > 2.5 | > 2.5 | –
29 | < 0.8 | ♯ | CC(C)CC(CN(C)C)N(Cc1cccc(CN2OC(CO)C(C(C)O)C2C(=O)NC2CC3CC(C2C)C3(C)C)c1)Cc1ccccc1I (centres unmarked) [Compound 318] | – | > 2.5 | > 2.5 | –
30 | < 0.8 | ♯ | COc1cccc(F)c1CN(Cc1cccc(CN2OC(CO)C(C(C)O)C2C(=O)NC2CC3CC(C2C)C3(C)C)c1)C(CC(C)C)CN(C)C (centres unmarked) [Compound 305] | – | 1.3 to 1.8 | < 1.3 | –
31 | < 0.8 | ♯ | CC(C)C[C@@H](CN(C)C)N(Cc1cccc(CN2O[C@@H](CO)C([C@H](C)O)[C@H]2C(=O)N[C@H]2C[C@H]3C[C@@H]([C@@H]2C)C3(C)C)c1)Cc1c(O)cccc1F (some centres unmarked) [Compound 306] | – | > 2.5 | 1.3 to 1.8 | –
32 | < 0.8 | ♯ | CC(O)C1C(CO)ON(Cc2cccc(CN(C)C(Cc3ccccc3)CN(C)C)c2)C1C(=O)NC1CC2CC(C1C)C2(C)C (centres unmarked) [Compound 464] | – | > 2.5 | > 2.5 | –
